According to patent US7524930B2, “Tumor antigen” (Green Peptide Co., Ltd, priority 2003, dated 2009):

What was measured:
Type in all cases: cell-based, human
[1] = system: peripheral blood mononuclear cells derived from a cancer patient; assay: CTL induction by peptide from autologous PBMC of cancer patient, IFN-γ production on recognition of target cells (Example 5); details: for Recognition of tumor cells by PBMC stimulated in vitro with peptide (IFN-γ production): SW620, CA9-22 and Panc-1 HLA-A2+ tumor cells, result in words; for IFN-γ production from peripheral blood mononuclear cells in recognition of target cells: PBMC stimulated with 10 μM peptide
From the text: Among the peptides that were able to enhance IFN-γ production from the OK-CTLp or OK-CTL clone in Example 4, those from P1 to P19 were examined for their ability to induce CTL from peripheral blood mononuclear cells derived from a cancer patient. The method for inducing CTL by a peptide was according to the well-known method (J. Exp. Med., 187:277-288, 1998; Cancer Res., 59:4056-4063, 1999.) Specifically, autologous peripheral blood mononuclear cells (PBMC) derived from a cancer patient, from whom OK-CTLp was obtained, were incubated together with the peptide (10 μM.) The cells were re-stimulated at day 10 and 14 after the start of culturing, using autologous PBMCs as an antigen presenting cell (APC) which were pulsed with 10 μM of the same peptide for 2 h and exposed to irradiation (30 gray.) At day 21 after the start of culturing, the cells were collected to test for surface phenotype. In addition, the cells were examined for the recognition of various target cells, using IFN-γ production measured by ELISA when they were cultured together with the target cells as an indicator. As a target cells, SW620 cell, CA9-22 cell, and Panc-1 cell, which are the HLA-A2^+ tumor cells, were used.

[2] = system: peripheral blood mononuclear cells derived from a cancer patient; assay: as above; details: PBMC stimulated with 10 μM peptide
OK-CTLp or OK-CTL clone = assay: Recognition of peptide-pulsed T2 cells by OK-CTLp or OK-CTL clone (IFN-γ ELISA)
[3] = concentration of peptide 0.1 μM

Sequence	Recognition of tumor cells by PBMC stimulated in vitro with peptide (IFN-γ production) [1]	IFN-γ production from peripheral blood mononuclear cells in recognition of target cells ([1]; target CA9-22 (HLA-A0207/24))	IFN-γ production from peripheral blood mononuclear cells in recognition of target cells ([1]; target Panc-1 (HLA-A0201/11))	IFN-γ production from peripheral blood mononuclear cells in recognition of target cells ([1]; target SW620 (HLA-A0201/24))	IFN-γ production from peripheral blood mononuclear cells in recognition of target cells ([2]; target COLO320 (HLA-A24/24))	IFN-γ production from peripheral blood mononuclear cells in recognition of target cells ([2]; target QG56 (HLA-A26/26))	IFN-γ production from peripheral blood mononuclear cells in recognition of target cells ([2]; target RERF-LC-MS (HLA-A11/11))	IFN-γ production (OK-CTLp or OK-CTL clone; [3])	IFN-γ production (OK-CTLp or OK-CTL clone; concentration of peptide 1 μM)	IFN-γ production (OK-CTLp or OK-CTL clone; concentration of peptide 10 μM)	IFN-γ production (OK-CTLp or OK-CTL clone; concentration of peptide 50 μM)
CLYGNVEKV (Designed peptide having an ability to activate HLA-A2 restricted Cytotoxic T lymphocytes) [Peptide P7, Gene 2 (HNRPL) 404-412]	induced CTL recognizing any one of the HLA-A2^+ tumor cells	0 pg/mL	54 pg/mL	344 pg/mL	0 pg/mL	0 pg/mL	0 pg/mL				
DLLSHAFFA [Peptide P18]	produced IFN-γ in a significant amount	70 pg/mL	>1000 pg/mL	>1000 pg/mL	0 pg/mL	29 pg/mL	0 pg/mL				
ELLNRYLYL [Peptide P27]								352 pg/mL	889 pg/mL	250 pg/mL	0 pg/mL
FMFGQKLNV (Designed peptide having an ability to activate HLA-A2 restricted Cytotoxic T lymphocytes) [Peptide P8, Gene 2 (HNRPL) 443-451]	produced IFN-γ in a significant amount	165 pg/mL	186 pg/mL	142 pg/mL	0 pg/mL	0 pg/mL	26 pg/mL				
ILGELREKV (Designed peptide having an ability to activate HLA-A2 restricted Cytotoxic T lymphocytes) [Peptide P11, Gene 3 (WHSC2) 141-149]	produced IFN-γ in a significant amount	62 pg/mL	>1000 pg/mL	893 pg/mL	0 pg/mL	0 pg/mL	0 pg/mL				
ILPRKHHRI (Designed peptide having an ability to activate HLA-A2 restricted Cytotoxic T lymphocytes) [Peptide P5, Gene 1 (UBE2V) 208-216]	produced IFN-γ in a significant amount	96 pg/mL	638 pg/mL	500 pg/mL	38 pg/mL	0 pg/mL	0 pg/mL				
LIMLQNALT [Peptide P28]								898 pg/mL		0 pg/mL	144 pg/mL
